Patent US6002009A, “Di-substituted 1,4-piperidine esters and amides having 5-HT4 antagonistic activity” (Boehringer Ingelheim Italia, S.p.A., priority 1995, dated 1999)

Target: 5-HT4 receptor (Sus scrofa, UniProt Q6Q253)
Assay: 5-HT4 receptor binding (competition against [^3 H]-GR 113808, pig striatum)
Details: 0.1 nM [^3 H]-GR 113808, 30 min at 37° C., read-out: Ki (affinity for the 5-HT4 receptor)
Method: The affinity of the compounds of formula (I) for 5-HT4 serotoninergic receptors was tested "in vitro" by receptor binding studies in the pig striatum, a tissue particularly rich in 5-HT4 receptors.
Receptor binding studies on 5-HT4 receptor were carried out to determine the affinity of the test compounds.
Pig striatum was removed, cleaned and homogenized (w/v 1:70) with an Ultra-Turrax at maximal speed for 30 s, followed by use of a Potter-Elvehjem homogenizer (30 strokes) in 50 mM Hepes buffer, pH 7.4 and filtered through two layers of cheese-cloth.
Binding curves for the different compounds were derived indirectly from competition experiments against 0.1 nM [^3 H]-GR 113808.
A 1 ml aliquot of homogenate was incubated for 30 min at 37° C. in the presence of the marker ligand and different concentrations of the cold ligands.
The incubation was stopped by rapid filtration using an automatic apparatus (1H -110 Inotech). The filters (Inotech glass fibre filter, type G7) were then transferred to scintillation vials containing 4 ml of Filter Count (Packard) and the radioactivity present was counted by liquid scintillation spectrometry (Kontron Betamat V). Assays were carried out in triplicated and non specific binding was defined as the radioactivity bound or entrapped in the filter when the incubation medium contained 10 μM of BIMU 0001 (3-ethyl-2,3-dihydro-2-oxo-benzimidazole-1(3a-tropyl carboxamide). Non specific binding was about 10-15%. The inhibition constant (Ki) was calculated after correction for the radioligand occupancy shift according to the equation of Cheng and Prusoff (Biochem. Pharmacol. 22, 3099, 1973).

Sequence of 5-HT4 receptor (Q6Q253 1-402): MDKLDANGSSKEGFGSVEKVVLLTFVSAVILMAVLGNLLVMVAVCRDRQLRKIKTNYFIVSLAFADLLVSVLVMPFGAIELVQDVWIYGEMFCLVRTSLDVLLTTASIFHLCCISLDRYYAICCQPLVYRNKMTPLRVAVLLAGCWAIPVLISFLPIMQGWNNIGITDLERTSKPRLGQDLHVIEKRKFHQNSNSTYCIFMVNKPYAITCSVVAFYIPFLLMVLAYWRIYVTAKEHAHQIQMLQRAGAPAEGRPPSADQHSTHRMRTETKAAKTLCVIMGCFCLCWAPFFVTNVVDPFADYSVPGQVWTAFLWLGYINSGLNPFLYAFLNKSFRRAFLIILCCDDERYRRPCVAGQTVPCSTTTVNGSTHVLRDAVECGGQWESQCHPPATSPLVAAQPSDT

Row | SMILES | Ki [nM]
1 | CCn1c(=O)n(C(=O)NCC2CCN(C[C@H](CO)NC(=O)Nc3ccccc3)CC2)c2ccccc21 [Compound 35, R(+)-3-Ethyl-2-oxo-2,3-dihydro-benzimidazol-1-carboxamide-{1-[2-(3-phenyl-ureido)-3-hydroxy-propyl]-piperidin-4-yl-methyl}] | 1.6
2 | CCn1c(=O)n(C(=O)OCC2CCN(C[C@H](C)NC(=O)OCc3ccccc3)CC2)c2ccccc21 [Compound 23, S(+)-3-Ethyl-2-oxo-2,3-dihydro-benzimidazol-1-carboxylic acid [1-(2-benzyloxycarbonyl-amino)-propyl-piperidin-4-yl]-methyl ester] | 0.86
3 | CCn1c(=O)n(C(=O)NCC2CCN(C[C@H](CO)NC(=O)OCc3ccccc3)CC2)c2ccccc21 [Compound 37, R(+)-3-Ethyl-2-oxo-2,3-dihydro-benzimidazol-1-carboxamide-[1-(2-benzyloxycarbonylamino-3-hydroxy-propyl)-piperidin-4-yl-methyl]] | 0.37
4 | CCNC(=O)N[C@@H](CO)CN1CCC(CNC(=O)n2c(=O)n(CC)c3ccccc32)CC1 [Compound 36] | 3
5 | CCNC(=O)N[C@@H](CO)CN1CCC(COC(=O)n2c3ccccc3c3ccccc32)CC1 [Compound 13, R(+)-Carbazole-9-carboxylic acid {1-[2-(3-ethyl-ureido)-3-hydroxy-propyl]-piperidin-4-yl} methyl ester] | 4.3
6 | C[C@@H](CN1CCC(COC(=O)n2c(=O)[nH]c3ccccc32)CC1)NC(=O)OCc1ccccc1 [Compound 21, S(+)-2-Oxo-2,3-dihydro-benzimidazol-1-carboxylic acid [1-(2-benzyloxycarbonyl-amino)-propyl-piperidin-4-yl]-methyl ester] | 1.3
7 | CCn1c(=O)n(C(=O)NCC2CCN(C[C@H](CC(N)=O)NC(=O)Nc3ccccc3)CC2)c2ccccc21 [Compound 30, S(+)-3-Ethyl-2-oxo-2,3-dihydro-benzimidazol-1-carboxamide-{1-[2-(3-phenyl-ureido)-3-carbamoyl-propyl]-piperidin-4-yl-methyl}] | 4.3

The remaining lines, values ahead:

Row | Ki [nM] | SMILES
8 | 4.6 | CCNC(=O)N[C@@H](Cc1c[nH]c2ccccc12)CN1CCC(COC(=O)c2cc(Cl)c(N)cc2OC)CC1 [Compound 1, S(+)-4-Amino-5-chloro-2-methoxy-benzoic acid {1-[2-(3-ethyl-ureido)-3-(1H-indol-3-yl)propyl]piperidin-4-yl} methyl, ester]
9 | 1.1 | COc1cc(N)c(Cl)cc1C(=O)OCC1CCN(C[C@H](Cc2ccccc2)NC(=O)OCc2ccccc2)CC1 [Compound 11, S(+)-4-Amino-5-chloro-2-methoxybenzoic acid [1-(2-benzyloxycarbonyl-amino-3-phenyl-propyl)-piperidin-4-yl]methyl ester]
10 | 2.9 | O=C(Nc1ccccc1)N[C@@H](CO)CN1CCC(COC(=O)c2c[nH]c3ccc(F)cc23)CC1 [Compound 16, R(+)-5-Fluoro-1H-indol-3-carboxylic acid {1-[2-(3-phenyl-ureido)-3-hydroxy-propyl]-piperidin-4-yl} methyl ester]
11 | 2.8 | CCOC(=O)N[C@@H](CO)CN1CCC(COC(=O)n2c3ccccc3c3ccccc32)CC1 [Compound 12, R(+)-Carbazole-9-carboxylic acid [1(2-ethoxycarbonyl-amino-3-hydroxy-propyl)-piperidin-4-yl]methyl ester]
12 | 2.1 | COc1cc(N)c(Cl)cc1C(=O)OCC1CCN(C[C@H](Cc2c[nH]c3ccccc23)NC(=O)OCc2ccccc2)CC1 [Compound 10, S(+)-4-Amino-5-chloro-2-methoxybenzoic acid {1-[2-benzyloxycarbonyl-amino-3-(1H-indol-3-yl)-propyl]piperidin-4-yl} methyl ester]
13 | 3.2 | CCOC(=O)N[C@@H](CCSC)CN1CCC(CNC(=O)n2c(=O)n(CC)c3ccccc32)CC1 [Compound 34, S(+)-3-Ethyl-2-oxo-2,3-dihydro-benzimidazol-1-carboxamide-[1-(2-ethoxycarbonylamino-4-methylthio-butyl)-piperidin-4-yl-methl]]
14 | 1 | CCn1c(=O)n(C(=O)NCC2CCN(C[C@H](CCSC)NC(=O)Nc3ccccc3)CC2)c2ccccc21 [Compound 26, S(-)-3-Ethyl-2-oxo-2,3-dihydro-benzimidazol-1-carboxamide-{1-[2-(3-phenyl-ureido)-4-methylthio-butyl]-piperidin-4-yl-methyl}]
15 | 0.25 | CCOC(=O)N[C@@H](CO)CN1CCC(COC(=O)c2c(OC)[nH]c3ccc(F)cc23)CC1 [Compound 19, R(+)-5-Fluoro-2-methoxy-1H-indol-3-carboxylic acid [1-(2-ethoxycarbonyl-amino-3-hydroxy-propyl)piperidin-4-yl]methyl ester]
16 | 4.3 | CCOC(=O)N[C@@H](CCSC)CN1CCC(COC(=O)c2cc(Cl)c(N)cc2OC)CC1 [Compound 9, S(+)-4-Amino-5-chloro-2-methoxy-benzoic acid [1-(2-ethoxycarbonyl-amino-4-methylthio-butyl)-piperidin-4-yl]methyl ester]
17 | 0.16 | COc1[nH]c2ccc(F)cc2c1C(=O)OCC1CCN(C[C@H](CO)NC(=O)OCc2ccccc2)CC1 [Compound 17, R(+)-5-Fluoro-2-methoxy-1H-indol-3-carboxylic acid [1-(2-benzyloxycarbonyl-amino-3-hydroxy-propyl)-piperidin-4-yl]methyl ester]
